Results on four molecules are retold here after US4496568A, “Antiinflammatory thieno [2,3-c]pyridine derivatives” (PACOR, priority 1977, dated 1985).

Common to all, as to type: in vivo
Series [1] relates to ovalbumin-induced systemic edema. As to the kind of experiment: Ovalbumin-induced systemic edema (anti-inflammatory activity). The conditions noted are these: rats, 100 mg/kg orally 1 hour before and simultaneously with ovalbumin, vs reference group. How it is done:
(§1) The pharmacological investigation concerned the anti-inflammatory activity of the compounds of this invention. This activity was investigated according to 2 methods:
(b) Method of the ovalbumin-induced systemic edema
A simultaneous intraperitoneal injection of 1 ml ovalbumin and 0,5 ml of 1% aqueous Evans blue solution is effected in rats. On the other hand, the animals of the treated group are orally administered 100 mg/kg body weight of the test derivative, 1 hour prior to ovalbumin administration and simultaneously therewith. The intensity of the phenomenon thus induced is rated according to a scale from 1 to 5, according to the progress of the inflammatory syndrome. Thus are determined, as a function of time, the mean intensity of the edema and the percent decrease of the edema reaction with respect to the reference group.

Series [2] deals with localized carrageenin-induced edema. In words: Localized carrageenin-induced edema (anti-inflammatory activity). As to conditions: rats, 100 mg/kg orally 1 hour before, at, and 1 and 2.5 hours after carrageenin, vs reference group. How it is done: as §1
(a) Method of localized carrageenin-induced edema
An 1% (0.1 ml) carrageenin solution is injected in the metatarsal flexor muscles of the right hind limb of rats at time 0. The animals of the treated group are additionally administered orally 100 mg/kg body weight of the test derivative, respectively 1 hour prior to injection of the phlogogenic agent, simultaneously with said injection, and then 1 and 2.5 hours thereafter. The determinations effected with a ROCH micrometer at times 0, 1 hour 2 hrs, 3 hrs and 5 hrs after carrageenin administration provide a measure, as a function of time, of the percent anti-inflammatoryactivity, with respect to the reference group.
On the technique in general: Carrageenan injected into the paw causes an acute inflammation.

Another series deals with mice. As to the kind of experiment: Acute intravenous toxicity LD50.

For the molecule `Cc1cc2c(O)cncc2s1` [Derivative No. 4, 4-hydroxy-2-methyl-thieno[2,3-c]pyridine], in series [1], the “Percent anti-inflammatory activity after 2 hrs” value is 48% and the “Percent anti-inflammatory activity after 3 hrs” value came out at 60%. Also, in series [2], the “Percent anti-inflammatory activity after 1 hr” value was 45%, the “Percent anti-inflammatory activity after 2 hrs” value was 49%, the “Percent anti-inflammatory activity after 3 hrs” value was found to be 50% and the “Percent anti-inflammatory activity after 5 hrs” value stood at 52%.

As for `Oc1cncc2ccsc12` [Derivative No. 1, 7-hydroxy-thieno[3,2-c]pyridine], in series [1], the “Percent anti-inflammatory activity after 2 hrs” value stood at 44% and the “Percent anti-inflammatory activity after 3 hrs” value was 50%. The molecule further registered an LD50 in the series with mice of 131 mg. In series [2], the “Percent anti-inflammatory activity after 1 hr” value worked out at 43%, the “Percent anti-inflammatory activity after 2 hrs” value is given as 46%, the “Percent anti-inflammatory activity after 3 hrs” value is 48% and the “Percent anti-inflammatory activity after 5 hrs” value came out at 49%.

On to `Oc1cncc2sccc12` [Derivative No. 2, 4-hydroxy-thieno[2,3-c]pyridine], for which, in series [1], the “Percent anti-inflammatory activity after 2 hrs” value was found to be 49% and the “Percent anti-inflammatory activity after 3 hrs” value turned out to be 58%. For the same molecule, in series [2], the “Percent anti-inflammatory activity after 1 hr” value is 40%, the “Percent anti-inflammatory activity after 2 hrs” value came to 45%, the “Percent anti-inflammatory activity after 3 hrs” value amounted to 49% and the “Percent anti-inflammatory activity after 5 hrs” value came out at 49%.

As for `Cc1ncc(O)c2ccsc12` [Derivative No. 3, 4-hydroxy-7-methyl-thieno[2,3-c]pyridine], in series [1], the “Percent anti-inflammatory activity after 2 hrs” value was 53% and the “Percent anti-inflammatory activity after 3 hrs” value is on record as 61%. Moreover, in series [2], the “Percent anti-inflammatory activity after 1 hr” value worked out at 42%, the “Percent anti-inflammatory activity after 2 hrs” value stood at 48%, the “Percent anti-inflammatory activity after 3 hrs” value is given as 52% and the “Percent anti-inflammatory activity after 5 hrs” value was 51%.
